# Source: patent US10913736B2 (UNIVERSITY OF WASHINGTON, priority 2014, dated 2021)
# Where “and” joins values, the source holds several entries; their conditions need not be identical. Equal entries are not always repeated. Where two headings read alike, the source gives them in different places.
# Experiments:
# MetRS (T. brucei) = MetRS (T. brucei) (Trypanosoma brucei brucei, UniProt Q38C91); assay: MetRS (T. brucei) ATP depletion assay using Kinase-Glo; assay type: biochemical
# T. brucei = assay: Growth inhibition assay of T. brucei cell cultures (Alamar Blue, 48 h); assay type: cell-based
# [1] = Trypanosoma brucei; read-out: B) T. brucei EC50
# Chain of MetRS (T. brucei) (Q38C91 entry or part of it): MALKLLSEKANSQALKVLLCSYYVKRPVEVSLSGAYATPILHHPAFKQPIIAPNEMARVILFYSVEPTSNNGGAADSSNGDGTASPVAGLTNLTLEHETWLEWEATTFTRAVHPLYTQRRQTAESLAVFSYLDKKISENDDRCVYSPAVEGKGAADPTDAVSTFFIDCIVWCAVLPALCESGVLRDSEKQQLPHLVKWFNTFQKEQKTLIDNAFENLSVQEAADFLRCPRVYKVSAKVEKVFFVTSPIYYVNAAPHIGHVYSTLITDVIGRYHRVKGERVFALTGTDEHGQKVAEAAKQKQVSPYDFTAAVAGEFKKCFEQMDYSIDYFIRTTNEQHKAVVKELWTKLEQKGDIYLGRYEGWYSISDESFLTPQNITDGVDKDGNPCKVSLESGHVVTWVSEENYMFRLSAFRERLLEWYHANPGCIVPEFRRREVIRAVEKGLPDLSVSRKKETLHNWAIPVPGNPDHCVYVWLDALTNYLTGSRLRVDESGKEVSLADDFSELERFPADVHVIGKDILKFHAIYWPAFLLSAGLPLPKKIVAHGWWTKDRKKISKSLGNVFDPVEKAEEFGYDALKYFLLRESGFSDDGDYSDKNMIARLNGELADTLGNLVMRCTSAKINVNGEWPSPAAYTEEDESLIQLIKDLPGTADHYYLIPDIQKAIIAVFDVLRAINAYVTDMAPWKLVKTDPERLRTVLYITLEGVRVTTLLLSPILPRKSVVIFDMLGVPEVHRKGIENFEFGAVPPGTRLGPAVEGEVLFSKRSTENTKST
Structure (SMILES),IC50 (MetRS (T. brucei)),EC50 (T. brucei; [1]) [µM],EC50 (T. brucei; read-out: B) T. brucei EC50) [µM]
"Clc1cc(Cl)cc(CNC2CCCC(c3nc4cc(Cl)cnc4[nH]3)C2)c1 (centres unmarked) [Compound 1841, 3-(6-chloro-3H-imidazo[4,5-b]pyridin-2-yl)-N-(3,5-dichlorobenzyl) cyclohexanamine]",6.3 µM,3.69,
"O=C(NCCc1ccc(Cl)cc1Cl)OCc1nc2ccccc2[nH]1 [Compound 1739, [2-(2,4-Dichloro-phenyl)-ethyl]-carbamic acid 1H-benzoimidazol-2-ylmethyl ester]",1.45 µM,> 10,
"CC(=O)N(Cc1ccc(Cl)cc1Cl)C1CCCC(c2nc3nc(Cl)ccc3[nH]2)C1 (centres unmarked) [Compound 1810, N-(3-(5-chloro-1H-imidazo[4,5-b]pyridin-2-yl)cyclohexyl)-N-(2,4-dichlorobenzyl)acetamide]",0.361 µM,4.53,
"COc1cc(CN2CCC[C@H](c3nc4nc(Cl)ccc4[nH]3)C2)cc(OC)c1 [Compound 1872, (S)-5-chloro-2-(1-(3,5-dimethoxybenzyl)piperidin-3-yl)-1H-imidazo[4,5-b]pyridine]",> 10 µM,8.34,
"Clc1cc(Cl)cc(CN[C@@H]2CCC[C@H](c3nc4nc(Cl)ccc4[nH]3)C2)c1 [Compound 1854, (1R,3S)-3-(5-chloro-1H-imidazo[4,5-b]pyridin-2-yl)-N-(3,5-dichlorobenzyl)cyclohexanamine]",0.106 µM,0.58,
"Cc1ccc2nc(CC(C)NCc3cc(Cl)cc(Cl)c3)[nH]c2c1 (centres unmarked) [Compound 1820, [(3,5-dichlorophenyl)methyl][1-(6-methyl-1H-1,3-benzodiazol-2-yl)propan-2-yl]amine]",0.29 µM,3.14,
"Clc1cc(Cl)cc(CCN2CCCC(c3nc4nc(Cl)ccc4[nH]3)C2)c1 (centres unmarked) [Compound 1812, 5-chloro-2-(1-(3,5-dichlorophenethyl)piperidin-3-yl)-1H-imidazo[4,5-b]pyridine]",,3.76,
"Clc1cc(Cl)cc(CN[C@@H]2CCN(c3nc4ccc(Cl)nc4[nH]3)C2)c1 [Compound 1847, (3R)-1-{5-chloro-3H-imidazo[4,5-b]pyridin-2-yl}-N-[(3,5-dichlorophenyl)methyl]pyrrolidin-3-amine]",0.696 µM,9.01,
"O=C(CCNc1ccc(Cl)cc1Cl)NCc1nc2ccccc2[nH]1 [Compound 1763, N-(1H-Benzoimidazol-2-ylmethyl)-3-(2,4-dichloro-phenylamino)-propionamide]",0.168 µM,12.7,
CC(=O)N(C1CCNc2c(Cl)cc(Cl)cc21)[C@H]1CCCN(c2nc3nc(Cl)ccc3[nH]2)C1 (some centres unmarked) [Compound 1943],2.13 µM and 3.54 µM,0.419,0.389
"Clc1cc(Cl)cc(NCC2CCCN(c3nc4nc(Cl)c(Br)cc4[nH]3)C2)c1 (centres unmarked) [Compound 1863, N-((1-(6-bromo-5-chloro-1H-imidazo[4,5-b]pyridin-2-yl)piperidin-3-yl)methyl)-3,5-dichloroaniline]",> 10 µM,3.29,
"O=C(Cc1cc(Cl)cc(Cl)c1)N1CCOC(c2nc3nc(Cl)ccc3[nH]2)C1 (centres unmarked) [Compound 1790, 1-(2-(5-chloro-1H-imidazo[4,5-b]pyridin-2-yl)morpholino)-2-(3,5-dichlorophenyl)ethanone]",0.105 µM,2.7,
"CCC(=O)NC(CC(=O)NCc1cc(Cl)cc(Cl)c1)c1nc2ccc(Cl)nc2[nH]1 (centres unmarked) [Compound 1968, 3-{5-chloro-3H-imidazo[4,5-b]pyridin-2-yl}-N-[(3,5-dichlorophenyl)methyl]-3-propanamidopropanamide]",1.86 µM,> 20,
"O=C(Cc1nc2ccc(Cl)cc2[nH]1)NCc1cc(Cl)cc(Cl)c1 [Compound 1804, N-(3,5-dichlorobenzyl)-2-(6-chloro-1H-benzo[d]imidazol-2-yl)acetamide]",0.389 µM,15,
"CCOc1c(Cl)cc(Cl)cc1CN[C@H]1CCCN(c2nc3nc(Cl)ccc3[nH]2)C1 [Compound 1920, (S)-1-(5-chloro-1H-imidazo[4,5-b]pyridin-2-yl)-N-(3,5-dichloro-2-ethoxybenzyl)piperidin-3-amine]",0.016 µM,0.111,
"O=C1CN(Cc2ccc(Cl)cc2Cl)CCN1Cc1nc2ccccc2[nH]1 [Compound 1747, 1-((1H-benzo[d]imidazol-2-yl)methyl)-4-(2,4-dichlorobenzyl)piperazin-2-one]",> 10 µM,> 10,
"Clc1cc(Cl)cc(CN2CCCC(Cc3nc4nc(Cl)ccc4[nH]3)C2)c1 (centres unmarked) [Compound 1814, 5-chloro-2-((1-(3,5-dichlorobenzyl)piperidin-3-yl)methyl)-1H-imidazo[4,5-b]pyridine]",3.4 µM,7.21,
"Clc1cc(Cl)c(Cl)c(CN[C@H]2CCCN(c3nc4nc(Cl)ccc4[nH]3)C2)c1 [Compound 1902, (S)-1-(5-chloro-1H-imidazo[4,5-b]pyridin-2-yl)-N-(2,3,5-trichlorobenzyl)piperidin-3-amine]",0.018 µM,0.354,
"O=C(Cc1ccc(Cl)cc1Cl)N1CCCC(c2nc3ccccc3[nH]2)C1 (centres unmarked) [Compound 1731, 1-(3-(1H-benzo[d]imidazol-2-yl)piperidin-1-yl)-2-(2,4-dichlorophenyl) ethanone]",5 µM,> 20,

Structure (SMILES),IC50 (MetRS (T. brucei)),EC50 (T. brucei; [1]) [µM],EC50 (T. brucei; read-out: B) T. brucei EC50) [µM]
"O=C(NCc1nc2ccc(F)cc2[nH]1)OCCc1ccc(Cl)cc1Cl [Compound 1741, (6-Fluoro-1H-benzoimidazol-2-ylmethyl)-carbamic acid 2-(2,4-dichloro-phenyl)-ethyl ester]",0.132 µM,4.22,
"CC[C@@H](Cc1nc2ccc(Cl)cc2[nH]1)NCc1cc(Cl)cc(Cl)c1 [Compound 1827, [(2S)-1-(6-chloro-1H-1,3-benzodiazol-2-yl)butan-2-yl][(3,5-dichlorophenyl)methyl]amine]",0.39 µM,5.02,
"O=C(COc1ccc(Cl)cc1Cl)NCCc1nc2ccccc2[nH]1 [Compound 1675, N-[2-(1H-1,3-benzodiazol-2-yl)ethyl]-2-(2,4-dichlorophenoxy)acetamide]",8.23 µM,> 20,
"O=C(Cc1cc(Cl)cc(Cl)c1)NCc1nc2cnc(Cl)cc2[nH]1 [Compound 1879, N-({6-chloro-1H-imidazo[4,5-c]pyridin-2-yl}methyl)-2-(3,5-dichlorophenyl)acetamide]",0.416 µM,11.2,
"NC(CC(=O)NCc1cc(Cl)cc(Cl)c1)c1nc2ccc(Cl)nc2[nH]1 (centres unmarked) [Compound 1969, 3-amino-3-(5-chloro-3H-imidazo[4,5-b]pyridin-2-yl)-N-(3,5-dichlorobenzyl)propanamide]",0.782 µM,7.96,
"COC(=O)N(CCCNc1nc2ccc(F)nc2n1C(=O)OC)Cc1cc(Cl)cc(Cl)c1 [Compound 1965, methyl 3,5-dichlorobenzyl3-(3-(methoxycarbonyl)-5-fluoro-3H-imidazo[4,5-b]pyridin-2-ylamino)propylcarbamate]",0.345 µM and 0.322 µM,0.0962,
"O=C(Nc1cc(Cl)cc(Cl)c1)N1CCCC(c2nc3cc(Cl)ccc3[nH]2)C1 (centres unmarked) [Compound 1759, 3-(5-chloro-1H-benzo[d]imidazol-2-yl)-N-(3,5-dichlorophenyl) piperidine-1-carboxamide]",> 10 µM,> 10,
"CN(Cc1nc2ccccc2[nH]1)C(=O)CCOc1ccc(Cl)cc1Cl [Compound 1727, N-(1H-1,3-benzodiazol-2-ylmethyl)-3-(2,4-dichlorophenoxy)-N-methylpropanamide]",5.09 µM,> 20,
"Clc1ccc(CN2CCC[C@H](c3nc4nc(Cl)ccc4[nH]3)C2)c(Cl)c1 [Compound 1869, (S)-5-chloro-2-(1-(2,4-dichlorobenzyl)piperidin-3-yl)-1H-imidazo[4,5-b]pyridine]",0.052 µM,1.7,
"O=C(NCc1nc2cccnc2[nH]1)OCc1ccccc1 [Compound 1699, benzyl N-{3H-imidazo[4,5-b]pyridin-2-ylmethyl}carbamate]",13.1 µM,> 10,
"Clc1ccc(Cn2cc(Cc3nc4ccccc4[nH]3)nn2)c(Cl)c1 [Compound 1752, 2-((1-(2,4-dichlorobenzyl)-1H-1,2,3-triazol-4-yl)methyl)-1H-benzo[d]imidazole]",1.36 µM,> 10,
"O=C(Cc1cc(Cl)cc(Cl)c1)NCc1nc2ccc(Cl)cc2[nH]1 [Compound 1851, N-((6-chloro-1H-benzo[d]imidazol-2-yl)methyl)-2-(3,5-dichlorophenyl)acetamide]",0.081 µM,3.38,
"Clc1cc(Cl)cc(CNC2CCCC(c3nc4ccccc4[nH]3)C2)c1 (centres unmarked) [Compound 1815, 3-(1H-benzo[d]imidazol-2-yl)-N-(3,5-dichlorobenzyl)cyclohexanamine]",> 10 µM,4.09,
"O=C(CCc1nc2nc(Cl)ccc2[nH]1)NCc1cc(Cl)cc(Cl)c1 [Compound 1944, 3-{5-chloro-1H-imidazo[4,5-b]pyridin-2-yl}-N-[(3,5-dichlorophenyl)methyl]propanamide]",0.535 µM,11.7,
"O=C(Nc1cc(Cl)cc(Cl)c1)[C@H]1CCCN(c2nc3nc(Cl)ccc3[nH]2)C1 [Compound 1888, (S)-1-(5-chloro-1H-imidazo[4,5-b]pyridin-2-yl)-N-(3,5-dichlorophenyl)piperidine-3-carboxamide]",,> 20,
"O=C(CO)N(CCCNc1nc2ccc(F)nc2[nH]1)Cc1cc(Cl)cc(Cl)c1 [Compound 1973, N-(3,5-dichlorobenzyl)-N-(3-(5-fluoro-3H-imidazo[4,5-b]pyridin-2-ylamino)propyl)-2-hydroxyacetamide]",0.011 µM,,
O=C(N[C@H]1CCCN(c2nc3nc(Cl)ccc3[nH]2)C1)c1cc(Cl)cc(Cl)c1 [Compound 1889],,> 20,
"Clc1cc(Cl)c2ccn(CCCNc3nc4ccc(Cl)nc4[nH]3)c2c1 [Compound 1996, 5-chloro-N-[3-(4,6-dichloro-1H-indol-1-yl)propyl]-3H-imidazo[4,5-b]pyridin-2-amine]",,5.3,
"NC(=O)N(CCCNc1nc2ccc(F)nc2[nH]1)Cc1cc(Cl)cc(Cl)c1 [Compound 1974, 1-(3,5-dichlorobenzyl)-1-(3-(5-fluoro-3H-imidazo[4,5-b]pyridin-2-ylamino)propyl)urea]",0.007 µM,,
